Assay results from EP3325465B1, “PESTICIDALLY ACTIVE PYRAZOLE DERIVATIVES” (Syngenta Participations AG, priority 2015, dated 2017).
Where two headings read alike, the source gives them in different places.

Key:
Format in all cases: in vivo
[1] = tested on: Thrips tabaci (Onion thrips); assay: Biological comparison b): insecticidal activity against Thrips tabaci, sunflower leaf discs; details: foliar, 144 h
Procedure: b) Insecticidal activity against Thrips tabaci (Onion thrips): Sunflower leaf discs were placed on agar in 24-well microtiter plates and sprayed with aqueous test solutions prepared from 10'000 ppm DMSO stock solutions. After drying the leaf discs were infested with a thrips population of mixed ages. The samples were assessed for mortality 6 days after infestation.

[2] = tested on: Myzus persicae (Green peach aphid); assay: Myzus persicae sucrose solution / Parafilm feeding test; details: 120 h, Application rate: 12.5ppm, sucrose solution, 5 days after infestation, read-out: mortality of Myzus persicae
Text: (§1) The pesticidal/insecticidal properties of the compounds according to embodiments 1 or 2 can be illustrated via the following tests: Spodoptera littoralis (Egyptian cotton leaf worm) • Cotton leaf discs were placed onto agar in 24-well microtiter plates and sprayed with aqueous test solutions prepared from 10'000 ppm DMSO stock solutions. After drying the leaf discs were infested with five L1 larvae. […] Plutella xylostella (Diamond back moth): 24-well microtiter plates with artificial diet were treated with aqueous test solutions prepared from 10'000 ppm DMSO stock solutions by pipetting. After drying, the plates were infested with L2 larvae (10 to 15 per well). The samples were assessed for mortality and growth inhibition in comparison to untreated samples 5 days after infestation. […] Diabrotica balteata, (Corn root worm) • Maize sprouts placed onto an agar layer in 24-well microtiter plates were treated with aqueous test solutions prepared from 10'000 ppm DMSO stock solutions by spraying. After drying, the plates were infested with L2 larvae (6 to 10 per well). […] Thrips tabaci (Onion thrips): Sunflower leaf discs were placed on agar in 24-well microtiter plates and sprayed with aqueous test solutions prepared from 10'000 ppm DMSO stock solutions. After drying the leaf discs were infested with a thrips population of mixed ages. The samples were assessed for mortality 6 days after infestation. […] Tetranychus urticae (Two-spotted spider mite): Bean leaf discs on agar in 24-well microtiter plates were sprayed with aqueous test solutions prepared from 10'000 ppm DMSO stock solutions. After drying the leaf discs were infested with a mite population of mixed ages. The samples were assessed for mortality on mixed population (mobile stages) 8 days after infestation. […] Euschistus heros (Neotropical Brown Stink Bug): • Two weeks old soybean plants were sprayed in a turn table spray chamber with the diluted spray solutions. After drying 2 soybean seeds were added and plants were infested with 10 N2 nymphs of the neotropical brown stink bug Euschistus heros in plastic test boxes. The samples were assessed for mortality in comparison to untreated samples 5 days after infestation. • The following compounds gave at least 80% mortality of Euschistus heros at an application rate of 12.5 ppm: Compounds 3 , 4 , 8 , 39 , 43 , 44 , 46 , 75 , 76 , 77 , 78 , 79 , 80 , 81 , 82 , 88 , 90 , 93 and 95 . Myzus persicae (Green peach aphid): Sunflower leaf discs were placed on agar in a 24-well microtiter plate and sprayed with test solutions at an application rate of 200 ppm. After drying, the leaf discs were infested with an aphid population of mixed ages. After an incubation period of 6 DAT, samples were checked for mortality. The following compounds gave at least 50% mortality of Myzus persicae: Compounds 3 , 4 , 8 , 43 , 44 , 75 , 76 , 77 , 80 , 81 , 90 and 92 . Myzus persicae (Green peach aphid): • Test compounds were applied by pipette into 24 well plates and mixed with Sucrose solution. Application rate: 12.5ppm. The plates were closed with a stretched parafilm. A plastic stencil with 24 holes is placed onto the plate and infested pea seedlings were placed directly on the Parafilm. The infested plate is closed with a gel blotting paper and another plastic stencil and then turned upside down. […]

[3] = tested on: Euschistus heros (Neotropical Brown Stink Bug); assay: Euschistus heros soybean plant spray test, N2 nymphs; details: 120 h, application rate of 12.5 ppm, 5 days after infestation, N2 nymphs, read-out: mortality of Euschistus heros
Text: as §1

[4] = tested on: Myzus persicae (Green peach aphid); assay: Myzus persicae sunflower leaf disc spray test; details: foliar, 144 h, application rate of 200 ppm, leaf disc spray, 6 DAT, read-out: mortality of Myzus persicae
Text: as §1

[5] = tested on: Plutella xylostella (Diamond back moth); assay: Plutella xylostella artificial diet test, L2 larvae; details: 120 h, application rate of 200 ppm, mortality and growth inhibition 5 days after infestation
Method in brief: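 Artificial diet in 24-well microtiter plates was treated by pipetting with aqueous test solutions made from 10'000 ppm DMSO stock solutions. Once dry, each well received 10 to 15 second-instar (L2) Plutella xylostella larvae. Mortality and growth inhibition were scored against untreated samples 5 days after infestation.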

[6] = tested on: Spodoptera littoralis (Egyptian cotton leaf worm); assay: Spodoptera littoralis cotton leaf disc spray test, L1 larvae; details: foliar, 72 h, application rate of 200 ppm, 3 days after infestation, L1 larvae, read-out: mortality
Method in brief: (§2)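 Leaf discs on agar sprayed with aqueous dilutions of 10'000 ppm DMSO stocks, then infested after drying: Myzus persicae (sunflower, 200 ppm, mixed ages), mortality at 6 DAT; Thrips tabaci (sunflower, mixed ages), mortality at 6 days; Tetranychus urticae (bean, mixed ages), mobile-stage mortality at 8 days; Spodoptera littoralis (cotton), five L1 larvae per disc.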

[7] = tested on: Diabrotica balteata (Corn root worm); assay: Biological comparison a): insecticidal activity against Diabrotica balteata, maize sprouts; details: 96 h, 4 days after infestation; for mortality at 0.195 ppm: Concentration 0.195 ppm; for mortality at 0.781 ppm: Concentration 0.781 ppm; for mortality at 3.12 ppm: Concentration 3.12 ppm; for mortality at 12.5 ppm: Concentration 12.5 ppm; for mortality at 50 ppm: Concentration 50 ppm
Text: as §1

[8] = tested on: Thrips tabaci (Onion thrips); assay: Thrips tabaci sunflower leaf disc spray test; details: foliar, 144 h, application rate of 200 ppm, mortality 6 days after infestation, mixed ages
Method in brief: as §2

[9] = tested on: Diabrotica balteata, (Corn root worm); assay: Diabrotica balteata maize sprout spray test, L2 larvae; details: 96 h, application rate of 200 ppm, 4 days after infestation, L2 larvae, read-out: mortality
Method in brief: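 Test solutions in water, made from DMSO stock solutions at 10'000 ppm, were sprayed onto maize sprouts resting on an agar layer in 24-well microtiter plates. Once the treated sprouts had dried, each well was infested with 6 to 10 second-instar (L2) Diabrotica balteata corn rootworm larvae, and mortality was then scored as percent.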

[10] = tested on: Tetranychus urticae (Two-spotted spider mite); assay: Tetranychus urticae bean leaf disc spray test; details: foliar, 192 h, application rate of 200 ppm, mortality on mixed population (mobile stages) 8 days after infestation
Method in brief: as §2

[11] = tested on: Spodoptera littoralis (Egyptian cotton leaf worm); assay: Biological comparison c): insecticidal activity against Spodoptera littoralis, larvicide L-3, feeding/contact, soybean plants; details: 120 h, 5 days after infestation, L3 larvae; for mortality at 0.05 ppm: Concentration 0.05 ppm; for mortality at 0.2 ppm: Concentration 0.2 ppm; for mortality at 0.8 ppm: Concentration 0.8 ppm; for mortality at 3 ppm: Concentration 3 ppm; for mortality at 12.5 ppm: Concentration 12.5 ppm
Text: c) Insecticidal activity against Spodoptera littoralis (Egyptian cotton leaf worm): (larvicide L-3, feeding/contact) Soybean plants are sprayed with diluted test solutions in an application chamber. The plants (2 replicates) are infested with 10 L3 larvae 1 day after treatment. Samples are checked 5 days after infestation for mortality, feeding behavior, and growth regulation.

Compound	mortality at 12.5 ppm [2] [%]	mortality at 12.5 ppm [3] [%]	mortality at 200 ppm [4] [%]	pest or weed control at 200 ppm [5] [%]	mortality at 200 ppm [6] [%]	mortality at 0.195 ppm [7] [%]	mortality at 0.781 ppm [7] [%]	mortality at 3.12 ppm [7] [%]	mortality at 12.5 ppm [7] [%]	mortality at 50 ppm [7] [%]	pest or weed control at 200 ppm [8] [%]	mortality at 200 ppm [9] [%]	pest or weed control at 200 ppm [10] [%]	mortality at 0.05 ppm [11] [%]	mortality at 0.2 ppm [11] [%]	mortality at 0.8 ppm [11] [%]	mortality at 3 ppm [11] [%]	mortality at 12.5 ppm [11] [%]	further results
Cn1nc(C(F)(F)C(F)(F)F)c(C(F)(F)F)c1-n1cc(-c2ccc(Cl)c(C(=O)NC3(C#N)CC3)c2)cn1 [B, reference compound]	–	–	–	–	–	–	–	–	–	–	–	–	–	–	–	–	–	–	mortality at 0.781 ppm [1]: 0%; mortality at 3.12 ppm [1]: 25%; mortality at 12.5 ppm [1]: 90%; mortality at 50 ppm [1]: 100%; mortality at 200 ppm [1]: 100%
Cn1nc(C(F)(F)C(F)(F)F)c(C(F)(F)F)c1-c1cc(-c2ccc(Cl)c(C(=O)NC3(C#N)CC3)c2)on1 [Compound 4, 2-chloro-N-(1-cyanocyclopropyl)-5-[3-[2-methyl-5-(1,1,2,2,2-pentafluoroethyl)-4-(trifluoromethyl)pyrazol-3-yl]isoxazol-5-yl]benzamide]	≥ 80	≥ 80	≥ 50	≥ 80	≥ 80	100	100	100	100	100	≥ 80	≥ 80	≥ 80	–	–	–	–	–	mortality at 0.781 ppm ([1]; Concentration 0.781 ppm, 6 days after infestation, read-out: Mortality (%)): 50%; mortality at 3.12 ppm ([1]; Concentration 3.12 ppm, 6 days after infestation, read-out: Mortality (%)): 65%; mortality at 12.5 ppm ([1]; Concentration 12.5 ppm, 6 days after infestation, read-out: Mortality (%)): 80%; mortality at 50 ppm ([1]; Concentration 50 ppm, 6 days after infestation, read-out: Mortality (%)): 100%; mortality at 200 ppm ([1]; Concentration 200 ppm, 6 days after infestation, read-out: Mortality (%)): 100%
Cn1nc(C(F)(F)C(F)(F)F)c(C(F)(F)F)c1-c1cc(-c2ccc(Cl)c(C(=O)NC3(C#N)CC3)c2)sn1 [Compound 44, 2-chloro-N-(1-cyanocyclopropyl)-5-[3-[2-methyl-5-(1,1,2,2,2-pentafluoroethyl)-4-(trifluoromethyl)pyrazol-3-yl]isothiazol-5-yl]benzamide]	≥ 80	≥ 80	≥ 50	≥ 80	≥ 80	–	–	–	–	–	≥ 80	≥ 80	≥ 80	0	0	50	95	100	–
Cn1nc(C(F)(F)C(F)(F)F)c(C(F)(F)F)c1-n1cc(-c2ccc(Cl)c(C(=O)NC3(C#N)CC3)c2)nn1 [Compound A, reference compound]	–	–	–	–	–	0	0	100	100	100	–	–	–	0	0	0	60	100	–
